The nature of data set [1]: Water sorption/desorption (dynamic vapor sorption). The class given is physicochemical. Particulars: 25° C., humidity cycle 5% RH to 95% RH at 10% RH intervals. As for the experimental part: The hygroscopicity of (2R)-2-phenylcarbonyloxypropyl (2S)-2-amino-3-(3,4-dihydroxyphenyl)propanoate mesylate, hydrate was evaluated during one vapor sorption-desorption cycle using a VTI SGA-100 dynamic vapor sorption analyzer. (2R)-2-Phenylcarbonyloxypropyl (2S)-2-amino-3-(3,4-dihydroxyphenyl)propanoate mesylate, hydrate was first dried at 25° C. for 180 min under a nitrogen atmosphere. The material was considered equilibrated when the weight change during 2 min was less than 0.01%. To evaluate the vapor sorption-desorption at 25° C., the dried (2R)-2-phenylcarbonyloxypropyl (2S)-2-amino-3-(3,4-dihydroxyphenyl)propanoate mesylate, hydrate was exposed to a humidity cycle ramped (and deramped) from 5% RH to 95% RH at 10% RH intervals. At each humidity interval, the material was equilibrated as determined by a less than 0.01% weight change during 5 min.

Data set [2] in a line: Interconversion of the anhydrous and hydrated crystalline forms (XRPD). The class given is physicochemical. The method, then: X-ray powder diffraction (XRPD) analysis was performed using a PANalytical X'Pert Pro X-ray diffractometer. The X-ray source was Cu-kα1 with output voltage of 45 kV and current of 40 mA. The instrument employed para-focusing Bragg-Brentano geometry with incident divergence and scattering slits set at 1/16° and ⅛°, respectively. 0.04-mm radius soller slits were used for both the incident and diffracted beams to remove axial divergence. Powder samples (9-12 mg) were gently pressed onto a single crystal silicon sample holder to form a smooth surface, and samples were spun at 8 sec/revolution throughout the data acquisition process. The samples were scanned from 2° to 40° (2θ) with a step size of 0.017° (2θ°) and a scan speed of 0.067°/sec. Data acquisition was controlled and analyzed with X'Pert Data Collector Software (version 2.2d) and X'Pert Data Viewer (version 1.2c), respectively.
The anhydrous and hydrated crystalline forms of (2R)-2-phenylcarbonyloxypropyl (2S)-2-amino-3-(3,4-dihydroxyphenyl)propanoate mesylate interconvert depending on the water content of the environment.

Bounds are passed on as bounds.

`CS(=O)(=O)O.C[C@H](COC(=O)[C@@H](N)Cc1ccc(O)c(O)c1)OC(=O)c1ccccc1.O` [(2R)-2-phenylcarbonyloxypropyl (2S)-2-amino-3-(3,4-dihydroxyphenyl)propanoate mesylate, hydrate]: in data set [1], the “Hygroscopicity: vapor sorption-desorption” value is “humidity-dependent reversible sorption and desorption of water vapor”. Besides, the “Crystal form after heating and then room temperature and humidity” value in data set [2] (after heating at 70° C., left at room temperature and humidity for 1 day) is given as “reverts to crystalline (2R)-2-phenylcarbonyloxypropyl (2S)-2-amino-3-(3,4-dihydroxyphenyl)propanoate mesylate, hydrate”. Moreover, in data set [2] (heated from 25° C. to 70° C. at 2° C./min, held at 70° C. for 15 min), the “Crystal form after heating” value is listed as “converted to a transient/metastable crystalline form”. In addition, in data set [2] (vacuum dried overnight, then 25° C. and 40-60% RH for one day), the “Crystal form after vacuum drying and then room temperature and humidity” value was “a mixture of crystalline anhydrous and hydrate forms”.
As for `CS(=O)(=O)O.C[C@H](COC(=O)[C@@H](N)Cc1ccc(O)c(O)c1)OC(=O)c1ccccc1` [compound 1, (2R)-2-phenylcarbonyloxypropyl (2S)-2-amino-3-(3,4-dihydroxyphenyl)propanoate mesylate], the “Time for conversion to the hydrate in the presence of water vapor” value in data set [2] (about 25° C., humidity of at least about 60% RH) is at most 24 h.
